The test system of this assay is common house mosquitoes (Culex pipens pallens) at the last instar larval stages. The experiment in a line: Test Example 2: mortality of common house mosquito larvae in treated water. The class given is in vivo. The note with it: 24 h, 3.5 ppm in water, 30 last instar larvae, after 1 day. As for the experimental part:
Each of the formulations that were prepared in Formulation Example 15 containing Present compounds (1), (2), (3) and (4) was diluted with water so as to make a concentration of each of the compound 500 ppm, to obtain a diluted solution containing Present compounds (1), (2), (3) and (4), respectively. The above-mentioned diluted solutions were added to 100 mL of ion-exchanged water (Concentrations of Present compounds were 3.5 ppm). Thirty (30) heads of common house mosquitoes (Culex pipens pallens) at the last instar larval stages were released into the resulting diluted solutions having the concentration of 3.5 ppm, and after 1 day, the life and death of the insects were examined, and the mortality of insects was calculated by the following equation. Mortality (%)=(Number of the dead insects/Number of test insects)×100
The mortality is the share of the test organisms that died. On to `CC(C)(N)CNC(=O)c1cc(COCc2ccccc2)on1` [(1)], for which the mortality at 3.5 ppm was no less than 91%. The figure for `CC(C)(N)CNC(=O)c1cc(COCc2ccc3ccccc3c2)on1` [(2)] is no less than 91%; for `CCCCc1cc(C(=O)NCC(C)(C)N)no1` [(3)] it is no less than 91%; for `CCCCc1cc(C(=O)NC(C)(C)C(C)(C)N)no1` [(4)] it is no less than 91%.
